Experimental data reported in patent US7563592B2, “Alizarin-based chromogenic substrates, their uses and composition containing same” (Biomerieux, S.A., priority 1999, dated 2009).

Experiments:
[1] = tested on: Providencia stuartii; assay: β-galactosidase detection on semi-solid medium, clinical and environmental strains (Example 2); assay type: cell-based; details: 50 mg/l + iron citrate 500 mg/l; 18 hours; 10 strains tested
[2] = tested on: Klebsiella pneumoniae 023; assay: β-galactosidase detection in semi-solid Columbia medium (Example 1); assay type: cell-based
[3] = tested on: Proteus vulgaris; assay: β-galactosidase detection on semi-solid medium, clinical and environmental strains (Example 2); assay type: cell-based; details: 50 mg/l + iron citrate 500 mg/l; 18 hours; 4 strains tested
[4] = tested on: Proteus penneri; assay: as above; assay type: cell-based; details: 50 mg/l + iron citrate 500 mg/l; 18 hours; 1 strain tested
[5] = tested on: Serratia marcescens 042; assay: β-galactosidase detection in semi-solid Columbia medium (Example 1); assay type: cell-based
[6] = tested on: Enterococcus faecalis 117; assay: as above; assay type: cell-based
[7] = tested on: 367 different strains collected from clinical and environmental specimens; assay: β-galactosidase detection on semi-solid medium, all strains together (Example 2); assay type: cell-based; details: 18 hours at 37° C.
[8] = tested on: Serratia spp.; assay: β-galactosidase detection on semi-solid medium, clinical and environmental strains (Example 2); assay type: cell-based; details: 50 mg/l + iron citrate 500 mg/l; 18 hours; 14 strains tested
[9] = tested on: Shigella dysenteriae; assay type: cell-based; details: 50 mg/l + iron citrate 500 mg/l; 18 hours; 2 strains tested
[10] = tested on: Citrobacter freundii; assay: β-galactosidase detection on semi-solid medium, clinical and environmental strains (Example 2); assay type: cell-based; details: 50 mg/l + iron citrate 500 mg/l; 18 hours; 16 strains tested
[11] = tested on: Providencia rettgeri; assay: as above; assay type: cell-based; details: 50 mg/l + iron citrate 500 mg/l; 18 hours; 3 strains tested
[12] = tested on: Klebsiella ozaenae; assay: as above; assay type: cell-based; details: 50 mg/l + iron citrate 500 mg/l; 18 hours; 3 strains tested
[13] = tested on: Aeromonas hydrophila; assay: as above; assay type: cell-based; details: 50 mg/l + iron citrate 500 mg/l; 18 hours; 3 strains tested
[14] = tested on: Proteus mirabilis; assay: as above; assay type: cell-based; details: 50 mg/l + iron citrate 500 mg/l; 18 hours; 16 strains tested
[15] = tested on: Aeromonas caviae; assay: as above; assay type: cell-based; details: 50 mg/l + iron citrate 500 mg/l; 18 hours; 7 strains tested
[16] = tested on: Morganella morganii; assay: as above; assay type: cell-based; details: 50 mg/l + iron citrate 500 mg/l; 18 hours; 12 strains tested
[17] = tested on: Enterobacter aerogenes; assay: as above; assay type: cell-based; details: 50 mg/l + iron citrate 500 mg/l; 18 hours; 9 strains tested
[18] = tested on: Listeria innocua 036; assay: β-glucosidase detection in API strip wells (Example 6); details: 0.12 g/l + iron citrate 0.05 g/l
[19] = tested on: Bacillus thuringiensis 072; assay: as above; details: 0.12 g/l + iron citrate 0.05 g/l; 24 H
[20] = tested on: Enterococcus faecium 009; assay: as above; details: 0.12 g/l + iron citrate 0.05 g/l
[21] = tested on: Klebsiella pneumoniae 023; assay: as above; details: 0.12 g/l + iron citrate 0.05 g/l
[22] = tested on: Citrobacter koseri 059; assay: Comparison of glucoside substrates in semi-solid Columbia medium (Example 7); assay type: cell-based; details: 0.05 g/l + iron citrate 0.05 g/l
[23] = tested on: Listeria monocytogenes 022; assay: β-glucosidase detection in API strip wells (Example 6); details: 0.12 g/l + iron citrate 0.05 g/l
[24] = tested on: Klebsiella pneumoniae 023; assay: Comparison of glucoside substrates in semi-solid Columbia medium (Example 7); assay type: cell-based; details: 0.05 g/l + iron citrate 0.05 g/l

O=C1c2ccccc2C(=O)c2c1ccc(O[C@@H]1O[C@H](CO)[C@H](O)[C@H](O)[C@H]1O)c2O [Alizarin-2-β-D-galactoside]
percentage of positive strains [1]: 0% | Color ([2]; 0.03 g/l + iron citrate, 18 H): purple | Intensity ([2]; 0.03 g/l + iron citrate, 18 H): 0.3 | Color ([2]; 0.03 g/l + iron citrate, 24 H): purple | Intensity ([2]; 0.03 g/l + iron citrate, 24 H): 0.3 | Color ([2]; 0.03 g/l + iron citrate, 48 H): purple | Intensity ([2]; 0.03 g/l + iron citrate, 48 H): 0.5 | Color ([2]; 0.05 g/l + iron citrate, 18 H): purple | Intensity ([2]; 0.05 g/l + iron citrate, 18 H): 0.8 | Color ([2]; 0.05 g/l + iron citrate, 24 H): purple | Intensity ([2]; 0.05 g/l + iron citrate, 24 H): 1 | Color ([2]; 0.05 g/l + iron citrate, 48 H): purple | Intensity ([2]; 0.05 g/l + iron citrate, 48 H): 1 | Color ([2]; 0.08 g/l + iron citrate, 18 H): purple | Intensity ([2]; 0.08 g/l + iron citrate, 18 H): 1.5 | Color ([2]; 0.08 g/l + iron citrate, 24 H): purple | Intensity ([2]; 0.08 g/l + iron citrate, 24 H): 1.5 | Color ([2]; 0.08 g/l + iron citrate, 48 H): purple | Intensity ([2]; 0.08 g/l + iron citrate, 48 H): 1.7 | percentage of positive strains [3]: 0% | percentage of positive strains [4]: 0% | Color ([5]; 0.01 g/l + iron citrate, 48 H): purple | Intensity ([5]; 0.01 g/l + iron citrate, 48 H): 0.3 | Color ([5]; 0.03 g/l + iron citrate, 18 H): purple | Intensity ([5]; 0.03 g/l + iron citrate, 18 H): 0.5 | Color ([5]; 0.03 g/l + iron citrate, 24 H): purple | Intensity ([5]; 0.03 g/l + iron citrate, 24 H): 1 | Color ([5]; 0.03 g/l + iron citrate, 48 H): purple | Intensity ([5]; 0.03 g/l + iron citrate, 48 H): 1.7 | Color ([5]; 0.05 g/l + iron citrate, 18 H): purple | Intensity ([5]; 0.05 g/l + iron citrate, 18 H): 1 | Color ([5]; 0.05 g/l + iron citrate, 24 H): purple | Intensity ([5]; 0.05 g/l + iron citrate, 24 H): 2.5 | Color ([5]; 0.05 g/l + iron citrate, 48 H): purple | Intensity ([5]; 0.05 g/l + iron citrate, 48 H): 3 | Color ([5]; 0.08 g/l + iron citrate, 18 H): purple | Intensity ([5]; 0.08 g/l + iron citrate, 18 H): 2 | Color ([5]; 0.08 g/l + iron citrate, 24 H): purple | Intensity ([5]; 0.08 g/l + iron citrate, 24 H): 2.5 | Color ([5]; 0.08 g/l + iron citrate, 48 H): purple | Intensity ([5]; 0.08 g/l + iron citrate, 48 H): 3.5 | Color ([6]; 0.01 g/l + iron citrate, 18 H): purple | Intensity ([6]; 0.01 g/l + iron citrate, 18 H): 0.3 | Color ([6]; 0.01 g/l + iron citrate, 24 H): purple | Intensity ([6]; 0.01 g/l + iron citrate, 24 H): 0.6 | Color ([6]; 0.01 g/l + iron citrate, 48 H): purple | Intensity ([6]; 0.01 g/l + iron citrate, 48 H): 0.6 | Color ([6]; 0.03 g/l + iron citrate, 18 H): purple | Intensity ([6]; 0.03 g/l + iron citrate, 18 H): 2.7 | Color ([6]; 0.03 g/l + iron citrate, 24 H): purple | Intensity ([6]; 0.03 g/l + iron citrate, 24 H): 3 | Color ([6]; 0.03 g/l + iron citrate, 48 H): purple | Intensity ([6]; 0.03 g/l + iron citrate, 48 H): 3.5 | Color ([6]; 0.05 g/l + iron citrate, 18 H): purple | Intensity ([6]; 0.05 g/l + iron citrate, 18 H): 4 | Color ([6]; 0.05 g/l + iron citrate, 24 H): purple | Intensity ([6]; 0.05 g/l + iron citrate, 24 H): 4 | Color ([6]; 0.05 g/l + iron citrate, 48 H): purple | Intensity ([6]; 0.05 g/l + iron citrate, 48 H): 4 | Color ([6]; 0.08 g/l + iron citrate, 18 H): purple | Intensity ([6]; 0.08 g/l + iron citrate, 18 H): 4 | Color ([6]; 0.08 g/l + iron citrate, 24 H): purple | Intensity ([6]; 0.08 g/l + iron citrate, 24 H): 4 | Color ([6]; 0.08 g/l + iron citrate, 48 H): purple | Intensity ([6]; 0.08 g/l + iron citrate, 48 H): 4 | color of colonies expressing β-galactosidase activity ([7]; 50 mg/l + iron citrate 500 mg/l): purple | strains that selectively hydrolyzed this substrate (not the reference substrate) ([7]; of 367 strains): Eight | percentage of positive strains [8]: 86% | percentage of positive strains [9]: 0% | percentage of positive strains [10]: 100% | percentage of positive strains [11]: 0% | percentage of positive strains [12]: 100% | percentage of positive strains [13]: 100% | percentage of positive strains [14]: 0% | percentage of positive strains [15]: 86% | percentage of positive strains [16]: 0% | percentage of positive strains [17]: 100%

O=C1c2ccccc2C(=O)c2c1ccc(O[C@@H]1O[C@H](CO)[C@@H](O)[C@H](O)[C@H]1O)c2O [Alizarin-2-β-D-glucoside]
Color observed ([18]; 4 H): Purple | Color observed ([18]; 24 H): Purple | Color observed [19]: Purple | Color observed ([20]; 4 H): Purple | Color observed ([20]; 24 H): Purple | Color observed ([21]; 4 H): Purple | Color observed ([21]; 24 H): Purple | Color ([22]; 18 H): Mauve | Intensity ([22]; 18 H): 2 arbitrary units | Color ([22]; 24 H): Mauve | Intensity ([22]; 24 H): 3 arbitrary units | Color ([22]; 48 H): Mauve | Intensity ([22]; 48 H): 3.5 arbitrary units | Color observed ([23]; 4 H): Purple | Color observed ([23]; 24 H): Purple | Color ([24]; 18 H): Purple | Intensity ([24]; 18 H): 3.5 arbitrary units | Color ([24]; 24 H): Purple | Intensity ([24]; 24 H): 4 arbitrary units | Color ([24]; 48 H): Purple | Intensity ([24]; 48 H): 4 arbitrary units
